We go through eight compounds from patent publication US20220235064A1 (WELLMARKER BIO CO., LTD., priority 2019, published 2022).

The test system of test [1] is cancer cell line KM12C, in which RON is activated. The test is described as follows: Cell growth inhibitory ability in RON-activated cancer cell line (MTS). Type of test: cell-based. Particulars: Homo sapiens, 48 hours, absorbance 490 nm. A digest of the protocol:
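KM12C cells (RON-activated, MEM with FBS) exposed to compound […] for 48 h. MTS added 24 h after treatment ended, incubated 4 h at 37° C, absorbance read at 490 nm. IC50 derived from absorbance.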

The test system is the same in test [2]. The experiment in a line: Cell-killing efficacy in RON-activated cancer cell line (trypan blue). The format is cell-based. Particulars: for cytotoxicity at 1 µM / cytotoxicity at 5 µM: Homo sapiens, 48 hours, trypan blue, n=2, read-out: Cell death (%) Cancer cell line KM12C; for cell-killing effect (in words): as compared with the positive control. In a few lines: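 KM12C cells seeded 1×10^5 per 60 mm^2 dish in MEM + 10% FBS, then exposed 24 h later to compound at 1 μM or 5 μM for 48 h.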

The target in a further test is T1, RON tyrosine kinase (Homo sapiens, UniProt Q04912).
T1 construct: purchased Carna Bioscience
T1 sequence (Q04912 25-1400): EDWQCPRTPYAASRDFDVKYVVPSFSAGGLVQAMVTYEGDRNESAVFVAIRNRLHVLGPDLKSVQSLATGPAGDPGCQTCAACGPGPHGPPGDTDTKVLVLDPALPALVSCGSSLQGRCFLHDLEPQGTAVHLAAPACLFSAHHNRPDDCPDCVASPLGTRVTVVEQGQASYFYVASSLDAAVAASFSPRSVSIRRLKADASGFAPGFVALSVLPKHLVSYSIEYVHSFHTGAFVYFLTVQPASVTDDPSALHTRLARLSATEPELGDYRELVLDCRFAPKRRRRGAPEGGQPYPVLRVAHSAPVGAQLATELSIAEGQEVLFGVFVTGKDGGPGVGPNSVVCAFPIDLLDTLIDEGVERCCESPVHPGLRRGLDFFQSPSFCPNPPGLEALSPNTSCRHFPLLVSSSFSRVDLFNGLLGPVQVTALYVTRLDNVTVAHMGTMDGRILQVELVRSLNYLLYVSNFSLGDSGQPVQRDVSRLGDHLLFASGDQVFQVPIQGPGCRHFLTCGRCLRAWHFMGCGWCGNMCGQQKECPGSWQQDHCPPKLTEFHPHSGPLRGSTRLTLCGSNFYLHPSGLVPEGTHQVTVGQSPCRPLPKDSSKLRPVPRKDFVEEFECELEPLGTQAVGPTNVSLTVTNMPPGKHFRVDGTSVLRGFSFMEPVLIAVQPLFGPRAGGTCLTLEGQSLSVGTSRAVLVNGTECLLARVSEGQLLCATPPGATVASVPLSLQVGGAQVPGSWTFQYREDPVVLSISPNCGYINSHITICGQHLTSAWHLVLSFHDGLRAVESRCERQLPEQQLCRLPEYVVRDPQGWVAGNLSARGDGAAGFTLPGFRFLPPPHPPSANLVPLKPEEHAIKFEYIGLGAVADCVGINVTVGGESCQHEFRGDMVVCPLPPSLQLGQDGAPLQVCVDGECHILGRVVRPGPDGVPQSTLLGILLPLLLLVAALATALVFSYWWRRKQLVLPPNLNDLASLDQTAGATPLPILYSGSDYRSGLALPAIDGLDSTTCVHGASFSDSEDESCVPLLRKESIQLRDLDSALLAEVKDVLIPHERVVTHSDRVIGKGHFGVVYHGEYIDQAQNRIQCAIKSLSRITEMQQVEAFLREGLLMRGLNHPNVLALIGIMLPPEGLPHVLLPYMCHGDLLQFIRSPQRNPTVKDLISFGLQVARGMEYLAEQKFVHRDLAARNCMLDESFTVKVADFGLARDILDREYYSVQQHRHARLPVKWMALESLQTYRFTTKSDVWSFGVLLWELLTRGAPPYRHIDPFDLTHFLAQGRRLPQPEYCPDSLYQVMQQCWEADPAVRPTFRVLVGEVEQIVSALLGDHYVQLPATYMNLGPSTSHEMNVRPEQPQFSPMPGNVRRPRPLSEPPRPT
The experiment in a line: Enzyme inhibitory activity against RON tyrosine kinase (TR-FRET). The format is biochemical. Particulars: RON (Carna Bioscience). A digest of the protocol:
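Recombinant RON was preincubated with compound for 15 min at RT in 50 mM HEPES pH 7.5, 10 mM MgCl2, 1 mM EGTA, 2 mM DTT, 0.01% Tween-20. Enzyme (0.4 nM), ATP (60 μM) and tyrosine peptide (400 nM) were prepared at 2×, 4× and 4× final. After 60 min at RT, EDTA/Eu-anti-phosphotyrosine stop; IC50 from 665 nm TR-FRET emission.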
(Time-resolved FRET reads energy transfer from a long-lived donor to a nearby acceptor.)

Test [3] deals with cancer cell line SW620, in which mutated RON (Δ155) is expressed. The test is described as follows: Cell-killing efficacy in RON-mutated cancer cell line SW620 (trypan blue). Type of test: cell-based. Particulars: for cytotoxicity at 1 µM / cytotoxicity at 5 µM: Homo sapiens, SW-620, 48 hours, trypan blue, n=2, read-out: Cell death (%) Cancer cell line SW620; for cell-killing effect (in words): SW620, as compared with the positive control. As to the method: (§1) Experimental Example 4: Measurement of Cell-Killing Efficacy of Example Compounds in RON-Mutated Cancer Cell Lines
(§2) Each of two colorectal cancer cell lines, that is, the cancer cell line HT29 (30038, KCLB, RPMI+10% FBS), in which mutated RON (Δ160) is expressed, and the cancer cell line SW620 (CCL-227, ATCC, RPMI+10% FBS), in which mutated RON (Δ155) is expressed, was dispensed into each 60 mm^2 dish at 1×10^5 cells. After 24 hours, the dish was treated with each of the example compounds at a concentration of 1 μM or 5 μM while performing medium exchange, and then reaction was allowed to proceed for 48 hours. After 48 hours, centrifugation was performed for 4 minutes at 1,500 rpm to collect cells and cell fluid. Thereafter, living cells and dead cells were quantified (n=2) using a trypan blue solution (15250-061, Gibco), and statistical analysis was performed using Excel-T-test. Here, as a negative control, only a solvent (0.10% DMSO) was used; and as a positive control, N-(4-(2-amino-3-chloropyridin-4-yloxy)-3-fluorophenyl)-4-ethoxy-1-(4-fluorophenyl)-2-oxo-1,2-dihydropyridine-3-carboxamide, which is the compound of Example 1 in WO 2008/058229 A1, was used.

The subject of test [4] is cancer cell line HT29, in which mutated RON (Δ160) is expressed. The experiment in a line: Cell-killing efficacy in RON-mutated cancer cell line HT29 (trypan blue). Type of test: cell-based. Particulars: for cytotoxicity at 1 µM / cytotoxicity at 5 µM: Homo sapiens, HT-29, 48 hours, trypan blue, n=2, read-out: Cell death (%) Cancer cell line HT29; for cell-killing effect (in words): HT29, as compared with the positive control. The protocol: as §1, §2

For `O=C(Nc1ccc(Oc2ccnc3cc(OCCCN4CCOCC4)ccc23)c(F)c1)c1c2c(cn(-c3ccc(F)cc3)c1=O)CCO2` [Example 158, N-(3-Fluoro-4-((7-(3-morpholinopropoxy)quinolin-4-yl)oxy)phenyl)-5-(4-fluorophenyl)-6-oxo-2,3,5,6-tetrahydrofuro[3,2-c]pyridine-7-carboxamide], the concentration for half-maximal inhibition (IC50) (commonly the concentration needed to halve the response being measured) in test [1] was 5 nM; against RON tyrosine kinase, 1.99 nM. The cytotoxicity at 1 µM was determined as 24.1% in test [2], 11.6% in test [3] and 15.2% in test [4]. In addition, the cytotoxicity at 5 µM in test [2] amounted to 37.1%; in test [3], 92.3%; in test [4], 30.9%.

Consider `COc1cc2nccc(Oc3ccc(NC(=O)c4c5c(cn(-c6ccc(F)cc6)c4=O)CCO5)cc3F)c2cc1NCCN1CCOCC1` [Example 185, N-(3-Fluoro-4-((7-methoxy-6-((2-morpholinoethyl)amino)quinolin-4-yl)oxy)phenyl)-5-(4-fluorophenyl)-6-oxo-2,3,5,6-tetrahydrofuro[3,2-c]pyridine-7-carboxamide], for which the half-inhibitory concentration (IC50) in test [1] is 1 nM; against RON tyrosine kinase it was 4.67 nM. The cytotoxicity at 1 µM in test [2] stood at 32.5%; in test [3], 28.1%; in test [4], 5.1%. Also, the cytotoxicity at 5 µM was 63.8% in test [2], 70.2% in test [3] and 32.4% in test [4]. For the same compound, the “cell-killing effect (in words)” value in test [2], in test [3] and in test [4] was “high cell-killing effect” in each case.

On to `COc1cc2c(Oc3ccc(NC(=O)c4c5c(cn(-c6ccc(F)cc6)c4=O)CCO5)cc3F)ccnc2cc1NCCN1CCOCC1` [Example 187, N-(3-Fluoro-4-((6-methoxy-7-((2-morpholinoethyl)amino)quinolin-4-yl)oxy)phenyl)-5-(4-fluorophenyl)-6-oxo-2,3,5,6-tetrahydrofuro[3,2-c]pyridine-7-carboxamide], for which the figures for the IC50 (in test [1]; on RON tyrosine kinase) were 6 nM and 3.86 nM, respectively. Besides, the cytotoxicity at 1 µM in test [2] is 20.4%; in test [3] it was 23.9%; in test [4] it was 8.4%. Besides, the cytotoxicity at 5 µM was 60% in test [2], 50.5% in test [3] and 34.3% in test [4]. In addition, the “cell-killing effect (in words)” value in test [2], in test [3] and in test [4] was “high cell-killing effect” throughout.

In the case of `Cn1cnc(-c2cc3nccc(Oc4ccc(NC(=O)c5c6c(cn(-c7ccc(F)cc7)c5=O)CCO6)cc4F)c3s2)c1` [Example 8, N-(3-Fluoro-4-((2-(1-methyl-1H-imidazol-4-yl)thieno[3,2-b]pyridin-7-yl)oxy)phenyl)-5-(4-fluorophenyl)-6-oxo-2,3,5,6-tetrahydrofuro[3,2-c]pyridine-7-carboxamide], the IC50 is 0.3 nM in test [1] and 0.66 nM at RON tyrosine kinase. Moreover, the figures for the cytotoxicity at 1 µM in test [2], in test [3] and in test [4] were 32.4%, 5.98% and 4.88%, respectively. Besides, the values for the cytotoxicity at 5 µM in test [2], in test [3] and in test [4] were 46.9%, 7.83% and 16.8%, respectively.

In the case of `COc1cc2c(Oc3ccc(NC(=O)c4c5c(cn(-c6ccc(F)cc6)c4=O)CCO5)cc3F)ccnc2cc1NCCCN1CCOCC1` [Example 188, N-(3-Fluoro-4-((6-methoxy-7-((3-morpholinopropyl)amino)quinolin-4-yl)oxy)phenyl)-5-(4-fluorophenyl)-6-oxo-2,3,5,6-tetrahydrofuro[3,2-c]pyridine-7-carboxamide], the values for the IC50 (in test [1]; at RON tyrosine kinase) were 8 nM and 3.23 nM, respectively. Further, the results for the cytotoxicity at 1 µM in test [2], in test [3] and in test [4] were 25.4%, 26.9% and 28.7%, respectively. The cytotoxicity at 5 µM in test [2] turned out to be 57.3%; in test [3] it was 31.6%; in test [4], 94.4%. The “cell-killing effect (in words)” value in test [2], in test [3] and in test [4] was “high cell-killing effect” each time.

Take `COc1cc2nccc(Oc3ccc(NC(=O)c4c5c(cn(-c6ccc(F)cc6)c4=O)CCO5)cc3F)c2cc1NC(C)=O` [Example 52, N-(4-((6-Acetamido-7-methoxyquinolin-4-yl)oxy)-3-fluorophenyl)-5-(4-fluorophenyl)-6-oxo-2,3,5,6-tetrahydrofuro[3,2-c]pyridine-7-carboxamide]: the IC50 in test [1] stood at 1 nM; at RON tyrosine kinase it was 1.83 nM. Besides, the cytotoxicity at 1 µM in test [2] came out at 10.1%; in test [3] it was 13.6%; in test [4], 10.5%. For the same compound, the cytotoxicity at 5 µM in test [2] came out at 24.7%; in test [3], 81.8%; in test [4] it was 16.1%.

On to `COc1cc2c(Oc3ccc(NC(=O)c4c5c(cn(-c6ccc(F)cc6)c4=O)CCO5)cc3F)ccnc2cc1NC(C)=O` [Example 184, N-(4-((7-Acetamido-6-methoxyquinolin-4-yl)oxy)-3-fluorophenyl)-5-(4-fluorophenyl)-6-oxo-2,3,5,6-tetrahydrofuro[3,2-c]pyridine-7-carboxamide], for which the values for the IC50 (in test [1]; on RON tyrosine kinase) were 2 nM and 0.92 nM, respectively. Further, the cytotoxicity at 1 µM in test [2] turned out to be 13.8%; in test [3], 5%; in test [4], 7.9%. Besides, the cytotoxicity at 5 µM in test [2] turned out to be 54.2%; in test [3] it was 29.8%; in test [4] it was 23.2%.

Turning to `COc1cc2c(Oc3ccc(NC(=O)c4c5c(cn(-c6ccc(F)cc6)c4=O)CCO5)cc3F)ccnc2cc1OCCCN1CCOCC1` [Example 76, N-(3-Fluoro-4-((6-methoxy-7-(3-morpholinopropoxy)quinolin-4-yl)oxy)phenyl)-5-(4-fluorophenyl)-6-oxo-2,3,5,6-tetrahydrofuro[3,2-c]pyridine-7-carboxamide], the IC50 turned out to be 4 nM in test [1] and 1.79 nM against RON tyrosine kinase. The cytotoxicity at 1 µM came out at 35.7% in test [2], 46.4% in test [3] and 21.9% in test [4]. The cytotoxicity at 5 µM came to 38.3% in test [2], 67.8% in test [3] and 28.6% in test [4]. Also, the “cell-killing effect (in words)” value in test [2], in test [3] and in test [4] was “high cell-killing effect” in each case.
